Test results from ChEMBL document CHEMBL1141448, “Curcumin induces high levels of topoisomerase I- and II-DNA complexes in K562 leukemia cells” (J Nat Prod, 2007).
Activity calls are given as the source filed them. No cut-off for these calls is given here.

Columns and labels:
K562 [1] = assay: Cytotoxicity against human K562 cells after 5 days by XTT assay; type: functional, cell-based; conditions: K562, 120 h
[2] = target: T1, DNA topoisomerase 1 (Homo sapiens) (UniProt P11387); assay: Binding affinity to topoisomerase 1 in human K562 cells assessed as stability of topoisomerase 1-DNA complex at 70 uM after 48 hrs by TARDIS assay; type: cell-based
T1 sequence (whole entry): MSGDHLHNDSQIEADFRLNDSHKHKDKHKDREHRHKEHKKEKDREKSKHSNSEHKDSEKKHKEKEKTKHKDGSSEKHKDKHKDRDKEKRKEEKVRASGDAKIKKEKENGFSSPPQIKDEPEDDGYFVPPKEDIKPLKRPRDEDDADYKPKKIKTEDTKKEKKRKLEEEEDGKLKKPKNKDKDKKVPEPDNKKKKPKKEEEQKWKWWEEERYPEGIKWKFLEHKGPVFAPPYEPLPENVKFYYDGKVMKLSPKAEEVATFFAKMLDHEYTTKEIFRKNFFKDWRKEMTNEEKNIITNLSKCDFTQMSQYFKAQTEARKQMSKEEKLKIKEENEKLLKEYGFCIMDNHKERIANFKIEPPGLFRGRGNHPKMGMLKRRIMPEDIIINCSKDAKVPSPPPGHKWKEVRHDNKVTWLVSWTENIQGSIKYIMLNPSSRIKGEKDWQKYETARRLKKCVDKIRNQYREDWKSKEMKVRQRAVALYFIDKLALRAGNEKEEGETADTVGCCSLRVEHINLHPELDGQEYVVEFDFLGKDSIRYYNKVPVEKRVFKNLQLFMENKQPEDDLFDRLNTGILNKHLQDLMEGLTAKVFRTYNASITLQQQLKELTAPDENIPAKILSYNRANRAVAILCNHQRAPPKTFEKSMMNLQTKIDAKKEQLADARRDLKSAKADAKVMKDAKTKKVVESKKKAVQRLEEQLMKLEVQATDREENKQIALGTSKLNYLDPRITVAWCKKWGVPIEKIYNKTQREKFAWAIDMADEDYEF

K562 [3] = assay: Binding affinity to topoisomerase 2 in human K562 cells assessed as stability of topoisomerase 2-DNA complex at 70 uM after 48 hrs by TARDIS assay; type: cell-based
[4] = target: T1, DNA topoisomerase 1 (Homo sapiens); assay: Reversal of drug-induced topoisomerase 1-DNA complex in presence of N-acetyl cysteine at 70 uM after 24 hrs
[5] = Reversal of drug-induced topoisomerase 2-DNA complex in presence of N-acetyl cysteine at 70 uM after 24 hrs
K562 [6] = assay: Binding affinity to topoisomerase 2 in human K562 cells assessed as increase in etoposide-induced topoisomerase 2-DNA complex at 20-70 uM after 24 hrs by TARDIS assay; type: cell-based
K562 [7] = assay: Binding affinity to topoisomerase 2 in human K562 cells assessed as increase in […]-induced topoisomerase 2-DNA complex at 20-70 uM after 24 hrs by TARDIS assay; type: cell-based

SMILES	IC50 (K562 [1]) [µM]	further results
O=C(CC(=O)c1ccccc1)c1ccccc1 [DIBENZOYLMETHANE]	30.9	
COc1cc(/C=C/C(=O)CC(=O)/C=C/c2ccc(O)c(OC)c2)ccc1O [CURCUMIN]	6.81	Activity [2]: Active; Activity (K562 [3]): Active; Activity [4]: Active; Activity [5]: Active; Activity (K562 [6]): Active; Activity (K562 [7]): Active
COc1cc([C@@H]2c3cc4c(cc3[C@@H](O[C@@H]3O[C@@H]5CO[C@@H](C)O[C@H]5[C@H](O)[C@H]3O)[C@H]3COC(=O)[C@H]23)OCO4)cc(OC)c1O [ETOPOSIDE]	0.32	
O=C1c2c(O)ccc(O)c2C(=O)c2c(NCCNCCO)ccc(NCCNCCO)c21 [MITOXANTRONE]	0.0026	
CC(=O)[C@]1(O)Cc2c(O)c3c(c(O)c2[C@@H](O[C@H]2C[C@H](N)[C@H](O)[C@H](C)O2)C1)C(=O)c1ccccc1C3=O [IDARUBICIN]	0.012	
CC[C@@]1(O)C(=O)OCc2c1cc1n(c2=O)Cc2cc3ccccc3nc2-1 [CAMPTOTHECIN]	0.04	
COc1cc(NS(C)(=O)=O)ccc1Nc1c2ccccc2nc2ccccc12 [AMSACRINE]	0.023	
COc1cc(/C=C/C(=O)O)ccc1O [FERULATE]	> 1000	
